US8338430B2, “N-substituted piperazines” (Dow AgroSciences, LLC., priority 2005, dated 2012)

Legend:
Type in all cases: in vivo
[1] = tested on: mosquito (Aedes aegypti) larvae; assay: Mosquito larvae mortality (AEDSAE); settings: 72 h, 20 μg/ml, mortality three days after treatment, read-out: AEDSAE: % mortality against mosquito larvae
Method: (§1) The compounds identified in TABLE 2 were prepared using the procedures illustrated in the previous examples and these compounds were tested against beet armyworm, mosquito, fruit fly, and cotton aphid using protocols described after.
(§2) Compounds were evaluated on mosquito (Aedes aegypti) larvae, beet armyworm (Spodoptera exigua) larvae, fruit fly (Drosophila melanogaster) adults and cotton aphid (Aphis gossypi). Newly hatched mosquito larvae (about 50 larvae/well) in 96-well microtiter plates in 230 ul of water containing powdered liver/yeast extract (1 gr/100 ml) were treated with 20 ppm solution of the test compound. Following treatment the plates were covered with a lid and mortality was determined three days after treatment. Beet armyworm eggs (about 5 per well) were placed on artificial diet (in a 96-well microtiter plate) treated with a 4000 ppm solution of a test compound in combination with piperonyl butoxide (in approximate ratio of 1:4). After infestation, the plates were covered with a lid and mortality was determined seven days following treatment. Five-day old fruit fly adults (about 5/well) were placed in deep-well microtiter plates containing 250 ul/well of a 2% agar-10% sucrose mixture that had been treated with a 4000 ppm solution of a test compound. Following infestation, the plates were covered with a lid and mortality was determined three days after treatment. Treatments for the mosquito and armyworm were replicated six times each, that of the fruit fly three times each.

[2] = tested on: cotton aphid (Aphis gossypi); assay: Cotton aphid foliar spray test on squash (CA 200); settings: 72 h, squash cotyledons, 3 days, Corrected % Control (Abbott), read-out: CA 200: % control against cotton aphid in foliar spray tests
Method: The compounds identified in TABLE 2 were prepared using the procedures illustrated in the previous examples and these compounds were tested against beet armyworm, mosquito, fruit fly, and cotton aphid using protocols described after. […]
Squash with fully expanded cotyledon leaves were trimmed to one cotyledon per plant and infested with cotton aphid (wingless adult and nymph) 1 day prior to chemical application.
Each plant is examined before chemical application to ensure proper infestation (ca. 30-70 aphids per plant). Compounds (3 mg) were dissolved in 3 mL of acetone:methanol (50:50) solvent, forming stock solutions of 1000 ppm. The stock solutions were then diluted with 0.025% Tween 20 (in H2O) to make […]. A hand-held Devilbiss sprayer was used to apply the spray solutions until runoff to both sides of the squash cotyledon leaves. Four plants (4 replications) were used for each concentration of each compound. Reference plants (solvent check) were sprayed with 0.025% Tween 20 only. Treated plants were held in a holding room for 3 days at approximately 23° C. and 40% RH before the number of live aphids on each plant was recorded. Insecticidal activity was measured by Corrected % Control using Abbott's correction formula and presented in TABLE 2: Corrected % Control=100*(X−Y)/X • where X=No. of live aphids on solvent check plants • Y=No. of live aphids on treated plants

[3] = tested on: fruit fly (Drosophila melanogaster) adults; assay: Adult fruit fly mortality on artificial diet (DROSME); settings: 72 h, 4000 μg/ml, mortality three days after treatment, read-out: DROSME: % mortality against adult fruit fly on artificial diet
Method: as §1, §2

[4] = tested on: beet armyworm (Spodoptera exigua) larvae; assay: Beet armyworm mortality on artificial diet (LAPHEG); settings: 168 h, 4000 μg/ml, with piperonyl butoxide (approx. 1:4), mortality seven days after treatment, read-out: LAPHEG: % mortality against beet armyworm on artificial diet
Method: as §1, §2

[5] = tested on: Leptosphaeria nodorum=Stagnospora nodorum; assay: Fungicidal test for LEPTNO, glume blotch of wheat, one day protectant; settings: 24 h, wheat plants (variety Yuma), sprayed one day before inoculation
Method: (§3) The compounds identified in Table 4 were prepared using the procedures illustrated in the previous examples and these compounds were tested against wheat glume blotch and wheat leaf blotch using the protocols described herein. Fungicidal Test for […] Each pot contained 3-20 seedlings. These plants were sprayed until wet with the formulated test compound at a rate of 25 ppm. On the following day, the leaves were inoculated with an aqueous spore suspension of Leptosphaeria nodorum and the plants were kept in high humidity (one day in a dark dew chamber followed by four to seven days in a lighted dew chamber) to permit spores to germinate and infect the leaf. The plants were then transferred to a greenhouse until disease developed on untreated control plants.

[6] = tested on: Mycosphaerella graminicola=Septoria tritici; assay: Fungicidal test for SEPTTR, speckled leaf blotch of wheat, one day protectant; settings: 24 h, wheat plants (variety Monon), sprayed one day before inoculation
Method: as §3, with “Speckled Leaf Blotch of Wheat (Mycosphaerella graminicola=Septoria tritici; Bayer code […]): Wheat plants (variety Monon) were grown from seed in a greenhouse in 50% pasteurized soil/50% soil-less mix until the first true leaf was fully expanded, with 3-8 seedlings per pot.” for “Each pot contained 3-20 seedlings.”, “Septoria tritici” for “Leptosphaeria nodorum”, “leaf” for “leaf.”

| Structure (SMILES) | mortality at 20 µg/mL [1] | pest or weed control at 200 ppm [2] | mortality at 4000 µg/mL [3] | mortality at 4000 µg/mL [4] | pest or weed control at 25 ppm [5] | pest or weed control at 25 ppm [6] |
| --- | --- | --- | --- | --- | --- | --- |
| FC(F)(F)c1ccccc1CCN1CCN(Cc2ccc3ccccc3c2)CC1 [Compound 80] | 1 to 25% | 26 to 49% | 1 to 25% | 26 to 49% | 50 to 100% | 50 to 100% |
| FC(F)(F)c1ccccc1CCN1CCN(Cc2ccc(Cl)s2)CC1 [Compound 81] | 1 to 25% | 50 to 100% | 1 to 25% | 1 to 25% | 50 to 100% | 50 to 100% |
| FC(F)(F)c1ccccc1CCN1CCN(Cc2csc3ccc(Cl)cc23)CC1 [Compound 88] | 1 to 25% | 50 to 100% | 1 to 25% | 1 to 25% | 1 to 25% | 50 to 100% |
| c1ccc(OCCN2CCN(Cc3ccccc3-c3ccccc3)CC2)cc1 [Compound 92] | 1 to 25% | 1 to 25% | 26 to 49% | 1 to 25% | 50 to 100% | 1 to 25% |
| c1ccc(CCN2CCN(Cc3ccccc3-c3ccccc3)CC2)cc1 [Compound 93] | 1 to 25% | 1 to 25% | 26 to 49% | 1 to 25% | 1 to 25% | 50 to 100% |
| CCOCCN1CCN(Cc2ccc(OCc3ccccc3)cc2)CC1 [Compound 109] |  |  |  |  | 1 to 25% | 50 to 100% |
| c1ccc(-c2ccccc2CN2CCN(CCc3ccccn3)CC2)cc1 [Compound 110] |  |  |  |  | 1 to 25% | 50 to 100% |
| c1ccc(COc2ccc(CN3CCN(CCOc4ccccc4)CC3)cc2)cc1 [Compound 111] |  |  |  |  | 50 to 100% | 50 to 100% |
| c1ccc(CCN2CCN(Cc3ccc(OCc4ccccc4)cc3)CC2)cc1 [Compound 112] |  |  |  |  | 1 to 25% | 50 to 100% |
| O=C(C1CC1)N1CCN(Cc2ccc(OCc3ccccc3)cc2)CC1 [Compound 114] |  |  |  |  | 1 to 25% | 50 to 100% |
| c1ccc(CCCN2CCN(Cc3ccc4ccccc4c3)CC2)cc1 [Compound 118] |  |  |  |  | 50 to 100% | 50 to 100% |
| FC(F)(F)c1ccccc1CCN1CCN(Cc2cccc(-n3cccc3)c2)CC1 [Compound 119] |  |  |  |  | 50 to 100% | 26 to 49% |
| CC(c1ccccc1)N1CCN(Cc2ccc3ccccc3c2)CC1 (centres unmarked) [Compound 187] |  |  |  |  | 50 to 100% | 50 to 100% |
| CC(c1ccccc1)N1CCN(Cc2cccc(-n3cccc3)c2)CC1 (centres unmarked) [Compound 234] |  |  |  |  | 50 to 100% | 1 to 25% |
| CC(c1ccccc1)N1CCN(Cc2csc3ccc(Cl)cc23)CC1 (centres unmarked) [Compound 236] |  |  |  |  | 50 to 100% | 1 to 25% |
